Reference: publication PMC6591251, “Discovery of potent necroptosis inhibitors targeting RIPK1 kinase activity for the treatment of inflammatory disorder and cancer metastasis” (Cell Death & Disease, 2019)

Assays:
human cells = system: human cells; design: method as in PMID 27551444, PMID 28151659; settings: cited from earlier work
mouse and rat = system: mouse and rat; design: method as in PMID 27551444, PMID 28151659; settings: cited from earlier work
NIH3T3-RIPK3 cells = assay: RIPK3 dimerization-induced necroptosis (AP20187); format: cell-based, mouse; settings: AP20187 100 nM, 24 h
Description: (§1) Recombinant proteins were incubated with PK6 and PK68 as indicated. […] NIH3T3-RIPK3 cells were pretreated with indicated compounds for 1 h and subsequently treated with T (40 ng/ml)/S (100 nM)/Z (20 μM) or AP20187 (100 nM) for 24 h. Cell viability was determined by measuring ATP levels. e PK6 and PK68 have no effect on MLKL dimerization-induced cell death in HeLa-MLKL (1–190) cells that stably express MLKL (1–190aa) fused to DmrB. HeLa-MLKL (1–190) cells were pretreated with indicated compounds for 1 h and subsequently treated with AP20187 (100 nM) for 24 h. Cell viability was determined by measuring ATP levels.
(§2) Further, we evaluated the selectivity of PK68 against a panel of 369 kinases provided by Reaction Biology (at 1000 nM). […] In addition, we followed on some of the active “hits” from the kinome scan. PK68 was tested against TNIK and TRKA by a reputable CRO company. […] RIPK1 is known to mediate NF-κB activation independently of its kinase activity. […] It has been shown that homodimerization of RIPK3 or MLKL induced by the dimerizer leads to necroptosis bypassing the upstream signals[10],[37]. […] This dimerized RIPK3-induced necroptosis was blocked by RIPK3 inhibitor GSK873 but was not blocked by the RIPK1 inhibitor necrostatin-1. […] (Fig. 4e).
(§3) The cell viability was analyzed by using the CellTiter-Glo Luminescent Cell Viability Assay kit following the manufacturer’s instructions (Promega). Luminescence was measured with SpectraMax i3x (Molecular Devices).

HT-29 cells = assay: TNF-induced necroptosis (TNFα/Smac mimetic/z-VAD), cell viability by ATP levels; format: cell-based, human; settings: Homo sapiens, HT-29, 48 h, T/S/Z 48 h, read-out: EC50(nM) HT-29
Description: (§4) Necroptosis is tightly regulated by RIP kinases including RIPK1 and RIPK3. To develop new necroptosis inhibitors, we screened a small-molecule library of around 240 potential kinase inhibitors that were designed with novel structures to affect the ATP-binding pocket of protein kinases. Human colon cancer HT-29 cells were treated with these compounds for […], followed by treatment with necroptotic stimuli (TNFα, Smac mimetic, and z-VAD) that are known to activate TNF-mediated necroptosis. After 48 h, cell viability was analyzed by monitoring ATP levels.
(§5) Fig. 1 PK6 efficiently blocks TNF-α induced necroptosis in both human and mouse cells. a HT-29 cells cultured in 96-well plates were pretreated with the indicated compounds (10 μM) from a library consisting of ~240 compounds that we designed with novel structures for 1 h and subsequently treated with 40 ng/ml TNF-α (T), 100 nM Smac mimetic (S), and the caspase inhibitor 20 μM z-VAD(Z) for 48 h. Cell viability was assessed by measuring ATP levels. Data are represented as the mean ± standard deviation of duplicates. b Chemical structure of PK6. c Dose response curve and EC50 ± SD value for PK6 in TNF-α induced necroptosis in HT-29 cells. Cells were pretreated with indicated concentrations of PK6 for 1 h prior to the treatment with T (40 ng/ml), S (100 nM), and Z (20 μM) for 48 h. Cell viability was assessed by measuring ATP levels. d U937 cells were pretreated with indicated concentrations of PK6 for 1 h followed by the treatment with T (40 ng/ml), S (100 nM), and Z (20 μM) for 24 h. e MEF cells were pretreated with indicated concentrations of PK6 for 1 h followed by the treatment with T (40 ng/ml), S (100 nM), and Z (20 μM) for 24 h. f L929 cells were pretreated with indicated concentrations of PK6 for 1 h prior to the treatment with S (100 nM) and Z (20 μM) for 24 h.
(§6) Fig. 2 Chemical optimization of PK6 leads to improvements in anti-necroptotic activity. a, b The effects of the indicated compounds on cell viability were examined in HT-29 cells (a) and L929 cells (b). HT-29 cells were treated as indicate for 48 h and L929 cells for 24 h. Cell viability was assessed by measuring ATP levels. Data are represented as the mean ± standard deviation of triplicates. c Structure and EC50 ± SD value of each compound are shown in the table. EC50 values are the average of at least two independent determinations. d Lead optimization of PK6 TEXT PRINTED IN THE PICTURE: (c) PK6: EC50(nM) HT-29: 1200±53; EC50(nM) L929: 760±26 | (c) PK67: EC50(nM) HT-29: 250±6.3; EC50(nM) L929: 130±6.8 | (c) PK81: EC50(nM) HT-29: 120±7.6; EC50(nM) L929: 20±0.98 | (c) PK84: EC50(nM) HT-29: 97±6.7; EC50(nM) L929: 45±2.1 | (c) PK93: EC50(nM) HT-29: 130±36; EC50(nM) L929: 30±7.4 | (c) PK86: EC50(nM) HT-29: 73±3.9; EC50(nM) L929: 15±1.0 | (c) PK68: EC50(nM) HT-29: 23±1.4; EC50(nM) L929: 13±0.85
as §3

L929 cells = assay: TNF-induced necroptosis, cell viability by ATP levels; format: cell-based; settings: Mus musculus, L929, 24 h, read-out: EC50(nM) L929
Description: as §4, §5, §6, §3

HeLa-MLKL (1–190) cells = assay: MLKL dimerization-induced cell death (AP20187); format: cell-based, human; settings: AP20187 100 nM, 24 h
Description: as §1, §2, §3

[1] = system: B16-F10 or RFP-LL/2 cells; assay: Proliferation rate and invasion ability without endothelial monolayer; format: cell-based, mouse; settings: B16-F10 or RFP-LL/2, in vitro
Description: Studies have shown that RIPK1 kinase activity is involved in the promotion of tumor metastasis through death receptor 6-dependent necroptosis of endothelial cells[22] or VEGF-dependent activation of vascular permeability. We thus evaluated the therapeutic effect of PK68 on lung metastasis of mouse melanoma B16-F10 cells in vivo. […] After 2 weeks, the metastasis of B16-F10 cells was measured by histological analysis and assessed as the number of metastasis nodules in the lung. […] Two weeks after intravenous injection of RFP-LL/2 cells, RFP^+ LL/2 cells were isolated from the tumor tissues by flow cytometer sorting and no signal of phosphorylated RIPK1 was detected in these tumors cells (Supplementary Fig. 22). Six hours after intravenous injection of RFP-LL/2 cells into C57BL/6 mice, the RFP-LL/2 cells have extravasated through blood vessels into the lung (Supplementary Fig. 23). […] Further, we evaluated the effect of PK68 on the tumor cell transmigration across the cultured endothelium. We isolated CD31^+ endothelial cells from the lungs and performed the transendothelial migration assay as previously reported. […]
(A-B) B16-F10 and RFP-LL/2 cells were pretreated with indicated compounds for 1h and then cell viability was measured by cell Titer-Glo. (C) B16-F10 and RFP-LL/2 cells were pre-treated with indicated compounds and invasion ability was measured by the transwell assay.

| Compound | EC50 (HT-29 cells) [nM] | EC50 (L929 cells) [nM] | melting point | other results |
| --- | --- | --- | --- | --- |
| CC(C)(C)C(=O)N1N=CC[C@H]1c1ccccc1 [GSK963] | – | – | – | potency in human cells (human cells): extremely potent; cellular efficacy in mouse and rat (mouse and rat): highly reduced cellular efficacy |
| CN1C(=O)C(Cc2c[nH]c3ccccc23)NC1=S (stereo not drawn) [necrostatin-1, Necrostatin-1, reference compound] | – | – | – | RIPK3 dimerization-induced necroptosis (NIH3T3-RIPK3 cells): not blocked |
| CC(=O)Nc1nc2ccc(-c3cnc(C)c(NC(=O)OC4CCCCC4)c3)nc2s1 [PK93, cyclohexyl (5-(2-acetamidothiazolo[5,4-b]pyridin-5-yl)-2-methylpyridin-3-yl)carbamate] | 130 ± 36 | 30 ± 7.4 | 230 to 231 °C (dec.) | – |
| CC(=O)Nc1nc2ccc(-c3cnc(C)c(NC(=O)CC4CCCCC4)c3)cc2s1 [PK67, N-(5-(2-acetamidobenzo[d]thiazol-6-yl)-2-methylpyridin-3-yl)-2-cyclohexylacetamide] | 250 | 130 | – | – |
| CC(=O)Nc1cn2cc(-c3cnc(C)c(NC(=O)OC4CCCCC4)c3)ccc2n1 [PK84, cyclohexyl (5-(2-acetamidoimidazo[1,2-a]pyridin-6-yl)-2-methylpyridin-3-yl)carbamate] | 97 ± 6.7 | 45 ± 2.1 | 268 to 269 °C (dec.) | – |
| COc1nccnc1NS(=O)(=O)c1ccc(NC(=O)/C=C/c2ccc([N+](=O)[O-])s2)cc1 [necrosulfonamide, reference compound] | – | – | – | polymerized MLKL-induced necroptosis (HeLa-MLKL (1–190) cells): effectively suppressed |
| CC(=O)Nc1nc2ccc(-c3cnc(C)c(NC(=O)OC4CCCC4)c3)cc2s1 [PK81, cyclopentyl (5-(2-acetamidobenzo[d]thiazol-6-yl)-2-methylpyridin-3-yl)carbamate] | 120 ± 7.6 | 20 ± 0.98 | 246 to 247 °C (dec.) | – |
| CN1C(=O)NC(Cc2c[nH]c3c(Cl)cccc23)C1=O (stereo not drawn) [Nec-1s, 7-Cl-O-Nec-1, reference compound] | – | – | – | proliferation rate and invasion ability [1]: no obvious influence |
| CN1C(=O)[C@@H](NC(=O)c2n[nH]c(Cc3ccccc3)n2)COc2ccccc21 [GSK2982772] | – | – | – | potency in human cells (human cells): extremely potent; cellular efficacy in mouse and rat (mouse and rat): highly reduced cellular efficacy |
| CC(=O)Nc1nc2ccc(-c3cc(NC(=O)OC4CCCCC4)c(C)cn3)cc2s1 [PK86, cyclohexyl (2-(2-acetamidobenzo[d]thiazol-6-yl)-5-methylpyridin-4-yl)carbamate] | 73 ± 3.9 | 15 ± 1 | 227 to 228 °C | – |
